# From patent publication US7402597B2, “Activator of peroxisome proliferator-activated receptor δ” (Nippon Chemiphar Co., Ltd, priority 2001, dated 2008)
# Read-outs that look alike come from different tables or passages of the source.
# Columns and labels:
# PPARα = target: T1, PPARα (Homo sapiens, UniProt Q07869); assay: PPARα transactivation activity (GAL4-hPPARα LBD luciferase reporter in CV-1 cells); assay type: cell-based; conditions: for Relative activity for PPAR transactivation, α: compounds at 10^-7 M; for Relative PPARα transactivation activity (α): test compound 10^-6 M, 40 hours, CV-1 cells, 100% = 10^-4 M, 0% = DMSO (0.1%)
# T1 construct: Receptor expression plasmid (GAL4-hPPARα, LBD GAL4-hPPARγ LBD, GAL4-hPPARδ LBD); expressed in transfected cells; host or cells: CV-1 cells
# T1 sequence (Q07869 239-466 limits assumed): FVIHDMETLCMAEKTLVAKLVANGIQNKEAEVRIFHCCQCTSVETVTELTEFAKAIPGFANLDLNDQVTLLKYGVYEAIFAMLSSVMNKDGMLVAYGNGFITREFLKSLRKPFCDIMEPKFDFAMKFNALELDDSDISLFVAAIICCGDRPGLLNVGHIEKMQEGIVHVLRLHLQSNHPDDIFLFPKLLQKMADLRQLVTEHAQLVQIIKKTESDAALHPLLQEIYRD
# Experimental: (§1) (1) Measurement of PPARα, γ, δ transactivation activity
# PPARα, γ, δ transactivation activity of each compound [Examples 1-4] was measured in the manner described below.
# (§2) CV-1 cells were obtained from Tohoku University Aging Medical Laboratory, Medical Cell Collection Center. All test compounds were dissolved in dimethylsulfoxide (DMSO). Final concentration of DMSO was 0.1%.
# Receptor expression plasmid (GAL4-hPPARα, LBD GAL4-hPPARγ LBD, GAL4-hPPARδ LBD), Reporter plasmid (UASx4-TK-LUC), and β-galactosidase expression plasmid (βGAL) similar to Kliewer, S. A., et al., ((1992) Nature, 358:771-774) were used.
# CV-1 cells were seeded in 24 well culture plates at 2×10^5 cells per well, and cultured for 24 hours OPTI-MEM I Reduced Serum Medium (Life Technologies, 500 μL/well) containing 4%-fetal bovine serum (FBS). After washing with OPTI-MEM, transfection mixture (250 μL/well) containing 0.03 μg of GAL4-hPPARδ LBD, 0.25 μg of UASx4-TK-LUC, 0.35 μg of βGAL, and 2 μL of lipofection reagent, DMRIE-C (Life Technologies) were added. The cells were incubated for 5 hours at 37° C.
# The cells were washed and incubated for 40 hours in the presence of the test compound (final concentration was 10^−6M).
# (§3) The culture medium was removed and the cells were washed with PBS twice. A solubilizing buffer (100 μL/well) containing 25 mM Tris-PO4 (pH 7.8), 15%v/v glycerol, 2% CHAPS, 1% Lecithin, 1% BSA, 4 mM EGTA (pH 8.0), 8 mM MgCl2, 1 mM DTT was added. After the incubation for 10 minutes at room temperature, a portion (20 μL) of the solution was transferred into a 96-well plate. Subsequently, 100 μL of luciferase substrate solution (Piccagene: available from Nippon Gene Co., Ltd.) was added, and a luminous intensity per one second (luciferase activity) was measured using a microluminoreader (Type MLR-100, Corona Electrics Co., Ltd.). Each luciferase activity was corrected by the transfection efficiency which was calculated from β-galactosidase activity. The assay method of β-galactosidase activity was as follows: A portion (50 μL) of the solubilized sample was transferred into another 96-well plate; 100 μL of ONPG (2-nitrophenyl-β-galactopyranoside) solution was added and incubated for 5 minutes at room temperature. 50 μL of a reaction stopping solution (1M sodium carbonate solution) was added. Then the absorbance at 414 nm was measured.
# A relative PPAR activity was calculated as follows: 0% (luciferase activity of cells treated with DMSO (0.1%) alone), 100% (luciferase activity of cells treated with a control (PPARα: 10^−4 M […], PPARγ: 10^−5 M Rosiglitazone, PPARδ: 10^−4 M L-165041)).
# PPAR transactivation activities of the compounds of Examples 5-10 were assayed in the same manner as described in Example 11.
# Relative activities for PPAR transactivation were shown.
# Each value represents as % of control. Cells were cultured in the presence of compounds at 10^−7 M except that PPARδ of Examples 5, 6 and 7 were assayed at 10^−8 M.
# PPARδ = target: T2, PPARδ (Homo sapiens, UniProt Q03181); assay: PPARδ transactivation activity (GAL4-hPPARδ LBD luciferase reporter in CV-1 cells); assay type: cell-based; conditions: for Relative PPARδ transactivation activity (δ) / PPARδ transactivation activity (statement in words on Table 25): test compound 10^-6 M, CV-1 cells; for Relative PPARδ transactivation activity (δ): 40 hours, 100% = 10^-4 M L-165041, 0% = DMSO (0.1%); for PPARδ transactivation activity (statement in words on Table 25): control 10^-4 M L-165041 = 100%
# T2 construct: transfection mixture (250 μL/well) containing 0.03 μg of GAL4-hPPARδ LBD; expressed in transfected cells; host or cells: CV-1 cells
# T2 sequence (Q03181 211-439 limits assumed): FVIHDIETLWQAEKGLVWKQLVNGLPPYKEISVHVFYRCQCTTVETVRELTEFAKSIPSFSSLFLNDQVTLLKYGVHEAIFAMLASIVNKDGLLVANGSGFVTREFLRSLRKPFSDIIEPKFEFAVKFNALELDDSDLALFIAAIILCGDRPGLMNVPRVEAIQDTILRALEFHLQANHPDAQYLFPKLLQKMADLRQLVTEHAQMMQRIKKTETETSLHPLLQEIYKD
# Experimental: PPARδ transactivation activity of the compound of the invention was measured in the manner described below.
# A receptor expression plasmid (GAL4-hPPARδ LBD), a reporter plasmid (UASx4-TK-LUC) and a β-galactosidase (β-GAL) expression plasmid were transfected into CV-1 cells by using DMRIE-C reagent. Subsequently, the cells were incubated for 40 hours in the presence of a compound of the invention, and then the luciferase and β-GAL activities of the cell lysate were assayed.
# as §1, §2
# (§4) CV-1 cells were seeded in 24 well culture plates at 2×10^5 cells per well, and cultured for 24 hours OPTI-MEM I Reduced Serum Medium (Life Technologies, 500 μL/well) containing 4%-fetal bovine serum (FBS). After washing with OPTI-MEM, transfection mixture (250 μL/well) containing 0.03 μg of GAL4-hPPARδ LBD, 0.25 μg of UASx4-TK-LUC, 0.35 μg of βGAL, and 2 μL of lipofection reagent, DMRIE-C (Life Technologies) were added. The cells were incubated for 5 hours at 37° C. […]
# as §3
# PPARγ = target: T3, PPARγ (Homo sapiens, UniProt P37231); assay: PPARγ transactivation activity (GAL4-hPPARγ LBD luciferase reporter in CV-1 cells); assay type: cell-based; conditions: for Relative PPARγ transactivation activity (γ): test compound 10^-6 M, 40 hours, CV-1 cells, 100% = 10^-5 M Rosiglitazone, 0% = DMSO (0.1%)
# T3 construct: Receptor expression plasmid (GAL4-hPPARα, LBD GAL4-hPPARγ LBD, GAL4-hPPARδ LBD); expressed in transfected cells; host or cells: CV-1 cells
# T3 sequence (P37231 238-503 limits assumed): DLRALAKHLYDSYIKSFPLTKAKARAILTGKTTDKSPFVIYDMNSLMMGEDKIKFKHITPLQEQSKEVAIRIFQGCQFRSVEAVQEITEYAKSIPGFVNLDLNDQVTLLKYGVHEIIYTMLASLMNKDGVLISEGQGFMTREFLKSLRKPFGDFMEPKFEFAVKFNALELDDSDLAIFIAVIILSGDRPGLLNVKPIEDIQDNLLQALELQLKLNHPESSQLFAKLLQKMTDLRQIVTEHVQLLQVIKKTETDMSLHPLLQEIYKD
# Experimental: as §1, §2, §4, §3
# db/db mice = system: db/db mice
# Experimental: HDL cholesterol elevating effect was measured by using db/db mice, which are hereditary obesity mice. The db/db mice (10 weeks old) were divided into groups based on serum HDL cholesterol levels. […] Mice of the control group (to which no agent was administered) were orally given 1% methyl cellulose solution. After 16 hours from the final administration, blood sample was collected, and serum HDL cholesterol level was measured. HDL cholesterol was separated by electrophoresis on agarose gels (Chol/Trig Combo, Helena Laboratories). Serum total cholesterol levels were measured enzymaticallly using a kit (Pure Auto, Daiichi Chemicals) by an automatic analyzer (7060E type, Hitachi Ltd.). HDL cholesterol levels were calculated from total cholesterol levels and HDL cholesterol/total cholesterol ratios.
# Each value represents as % of the control group.
# [1] = compounds at 10^-8 M (Examples 5, 6 and 7)
SMILES,"Relative activity for PPAR transactivation, α (PPARα)","Relative activity for PPAR transactivation, δ (PPARδ; compounds at 10^-7 M)","Relative activity for PPAR transactivation, γ (PPARγ; compounds at 10^-7 M)",Relative PPARα transactivation activity (α) (PPARα) [%],Relative PPARδ transactivation activity (δ) (PPARδ) [%],Relative PPARγ transactivation activity (γ) (PPARγ) [%],"Relative activity for PPAR transactivation, δ (PPARδ; [1])",further results
"Cc1cc2c(CCc3sc(-c4ccc(C(F)(F)F)cc4)nc3C(C)C)noc2cc1NCC(=O)O [Example 8, [3-[2-[4-Isopropyl-2-(4-trifluoromethyl)phenyl-5-thiazolyl]ethyl]-5-methyl-1,2-benzisoxazol-6-yl]aminoacetic acid]",0 % of control,61 % of control,0 % of control,–,–,–,–,–
"C=CCc1c(OC(C)(C)C(=O)O)ccc2c(CCc3sc(-c4ccc(C(F)(F)F)cc4)nc3C(C)C)noc12 [Example 4, 2-[[7-Allyl-3-[2-[2-[(4-trifluoromethyl)phenyl]-4-isopropyl-5-thiazolyl]ethyl]-1,2-benzisoxazol-6-yl]oxy]-2-methylpropionic acid]",–,–,–,85.0,59.9,9.5,–,–
"Cc1cc2c(CCc3sc(-c4ccc(C(F)(F)F)cc4)nc3C(C)C)noc2cc1SCC(=O)O [Example 7, [3-[2-[4-Isopropyl-2-(4-trifluoromethyl)phenyl-5-thiazolyl]ethyl]-5-methyl-1,2-benzisoxazol-6-yl]thioacetic acid]",0 % of control,–,0 % of control,–,–,–,63 % of control,–
"C=CCc1c(OC(C)(C)C(=O)O)ccc2c(CCc3nc(-c4ccc(Cl)cc4Cl)oc3C(C)C)noc12 [Example 2, 2-[[7-Allyl-3-[2-[2-(2,4-dichlorophenyl)-5-isopropyl-4-oxazolyl]ethyl]-1,2-benzisoxazol-6-yl]oxy]-2-methylpropionic acid]",–,–,–,8.0,67.8,3.2,–,PPARδ transactivation activity (statement in words on Table 25) (PPARδ): selective PPARδ transactivation activity
"Cc1cc2c(CCc3nc(-c4ccc(Cl)cc4Cl)oc3C(C)C)noc2cc1OCC(=O)O [Example 9, (3-[2-[2-(2,4-Dichlorophenyl)-5-isopropyl-4-oxazolyl]ethyl]-5-methyl-1,2-benzisoxazol-6-yl]oxyacetic acid]",0 % of control,86 % of control,2 % of control,–,–,–,–,–
"Cc1cc2c(CCc3sc(-c4ccc(C(F)(F)F)cc4)nc3C(C)C)noc2cc1OCC(=O)O [Example 5, [3-[2-[4-Isopropyl-2-(4-trifluoromethyl)phenyl-5-thiazolyl]-ethyl]-5-methyl-1,2-benzisoxazol-6-yl]oxyacetic acid]",0 % of control,–,0 % of control,–,–,–,75 % of control,–
"Cc1cc2c(CCc3sc(-c4ccc(C(F)(F)F)cc4)nc3C(C)C)noc2cc1OC(C)(C)C(=O)OCCN1CCCCC1.Cl [Example 10, 2-[[3-[2-[4-Isopropyl-2-(4-trifluoromethyl)phenyl-5-thiazolyl]ethyl]-5-methyl-1,2-benzisoxazol-6-yl]oxy]-2-methylpropionic acid 2-piperidin-1-yl ethyl ester hydrochloride]",3 % of control,75 % of control,0 % of control,–,–,–,–,–
"Cc1cc2c(CCc3sc(-c4ccc(C(F)(F)F)cc4)nc3C(C)C)noc2cc1OC(C)(C)C(=O)O [Example 6, 2-[[3-[2-[4-Isopropyl-2-(4-trifluoromethyl)phenyl-5-thiazolyl]ethyl]-5-methyl-1,2-benzisoxazol-6-yl]oxy]-2-methylpropionic acid]",0 % of control,–,–,–,–,–,54 % of control,"Ratio of increasing HDL cholesterol (db/db mice; 10 mg/kg b.i.d. orally for one week, serum 16 hours after final administration): 164 % to control; HDL cholesterol elevating effect (statement in words on Table 27) (db/db mice; oral, twice daily for one week, serum HDL cholesterol 16 hours after final administration): potent HDL cholesterol elevating effect; Relative activity for PPAR transactivation, γ (PPARγ): 0 % of control"
"C=CCc1c(OCC(=O)O)ccc2c(CCc3nc(-c4ccc(Cl)cc4Cl)oc3C(C)C)noc12 [Example 1, [[7-Allyl-3-[2-[2-(2,4-dichlorophenyl)-5-isopropyl-4-oxazolyl]ethyl]-1,2-benzisoxazol-6-yl]oxy]acetic acid]",–,–,–,0.1,76.9,9.4,–,PPARδ transactivation activity (statement in words on Table 25) (PPARδ): selective PPARδ transactivation activity
